Earlier results, collected in patent publication US11278512B2, “Compositions comprising a metal and L-serine, and uses thereof” (Brain Chemistry Labs, priority 2019, dated 2022).

Columns and labels:
[1] = tested on: neurofibrillary tangles (NFTs) and β-amyloid plaques
[2] = parameters: reduction in ALSFRS (Amyotrophic Lateral Sclerosis Functional Rating Scale): dose or concentration left out as unconfirmed

Compound	BMAA-induced microglial activation and proteinopathies along the spine, including deposition of TDP-43 and FUS ([1]; BMAA-induced)	density of neurofibrillary tangles (NFTs) and β-amyloid plaques in the brain ([1]; non-human primates)	misincorporation of BMAA into human neuroproteins; protein misfolding, aggregation and apoptosis induced by BMAA (human neuroproteins)	reduction in ALSFRS (Amyotrophic Lateral Sclerosis Functional Rating Scale) ([2]; daily dosing with for three months, approximates the reduction achieved by Riluzole) [%]	safety when administered to ALS patients ([2]; up to 90 mg/day)
N[C@@H](CO)C(=O)O [L-serine]	blocks	decreases the density	blocks misincorporation	–	–
[Zn] [Zinc, zinc]	–	–	–	~30	safe
